Measured values: the NIST ThermoML archive (doi:10.1016/j.jct.2005.03.027)

What was measured:
[1] = refractive index (Na D-line) (dimensionless); details: 293.15 K; 101.33 kPa; Liquid; Standard Abbe refractometry
[2] = 101 kPa, Liquid
[3] = xn = mol fraction of the nth substance listed; details: 101 kPa, Liquid

CCCCCO [pentan-1-ol]
Details | refractive index
[1] | 1.40995

[2]
Details | mass density [kg/m3] | viscosity [mPa·s]
293.15 K | 815.03 | 4.052
303.15 K | 807.6 | 2.926

BrC(Br)C(Br)Br [1,1,2,2-tetrabromoethane] + CCCCCCCCCCO
[3]
Details | mass density, 293.15 K [kg/m3] | mass density, 303.15 K [kg/m3] | viscosity, 293.15 K [mPa·s] | viscosity, 303.15 K [mPa·s]
x1 = 0.1023 | 968.19 | 960.09 | 14.09 | 9.449
x1 = 0.202 | 1114.37 | 1104.97 | 13.66 | 9.246
x1 = 0.3012 | 1272.36 | 1261.57 | 13.24 | 9.048
x1 = 0.4012 | 1446.62 | 1434.34 | 12.82 | 8.863
x1 = 0.5007 | 1636.66 | 1622.78 | 12.43 | 8.701
x1 = 0.6006 | 1847.04 | 1831.45 | 12.06 | 8.57
x1 = 0.7011 | 2081.74 | 2064.32 | 11.74 | 8.482
x1 = 0.8006 | 2340.68 | 2321.36 | 11.45 | 8.437
x1 = 0.9006 | 2632.79 | 2611.47 | 11.19 | 8.422
x1 = 1 | 2963.2 | 2939.86 | 10.94 | 8.413

CCCCCO [pentan-1-ol] + BrC(Br)C(Br)Br
[3], x2 = 0
Details | mass density [kg/m3] | viscosity [mPa·s]
293.15 K | 815.03 | 4.052
303.15 K | 807.6 | 2.926

CCCCCCO [hexan-1-ol]
Details | refractive index
[1] | 1.41826

[2]
Details | mass density [kg/m3] | viscosity [mPa·s]
293.15 K | 818.92 | 5.37
303.15 K | 811.73 | 3.744

CCCCCCCCO [octan-1-ol]
Details | refractive index
[1] | 1.42958

[2]
Details | mass density [kg/m3] | viscosity [mPa·s]
293.15 K | 824.99 | 9.219
303.15 K | 818.09 | 6.358

CCCCCCCCO [octan-1-ol] + BrC(Br)C(Br)Br
[3], x2 = 0
Details | mass density [kg/m3] | viscosity [mPa·s]
293.15 K | 824.99 | 9.219
303.15 K | 818.09 | 6.358

BrC(Br)C(Br)Br [1,1,2,2-tetrabromoethane] + CCCCCCO
[3]
Details | mass density, 293.15 K [kg/m3] | mass density, 303.15 K [kg/m3] | viscosity, 293.15 K [mPa·s] | viscosity, 303.15 K [mPa·s]
x1 = 0.1001 | 1021.6 | 1012.63 | 5.764 | 4.031
x1 = 0.2007 | 1227.75 | 1216.94 | 6.116 | 4.348
x1 = 0.3004 | 1434.26 | 1421.62 | 6.633 | 4.709
x1 = 0.4004 | 1643.89 | 1629.48 | 7.123 | 5.112
x1 = 0.5005 | 1856.54 | 1840.42 | 7.644 | 5.542
x1 = 0.6008 | 2072.22 | 2054.51 | 8.195 | 6.009
x1 = 0.6999 | 2288.24 | 2269.06 | 8.786 | 6.508
x1 = 0.8012 | 2512.37 | 2491.76 | 9.433 | 7.068
x1 = 0.9001 | 2734.51 | 2712.53 | 10.14 | 7.699
x1 = 1 | 2963.2 | 2939.86 | 10.94 | 8.413

CCCCCCCO [heptan-1-ol]
Details | refractive index
[1] | 1.42397

[2]
Details | mass density [kg/m3] | viscosity [mPa·s]
293.15 K | 822.39 | 7.058
303.15 K | 815.41 | 4.821

BrC(Br)C(Br)Br [1,1,2,2-tetrabromoethane] + CCCCCCCO
[3]
Details | mass density, 293.15 K [kg/m3] | mass density, 303.15 K [kg/m3] | viscosity, 293.15 K [mPa·s] | viscosity, 303.15 K [mPa·s]
x1 = 0.099 | 1001.11 | 992.57 | 7.314 | 5.033
x1 = 0.1999 | 1189.38 | 1179.18 | 7.577 | 5.262
x1 = 0.3001 | 1383.2 | 1371.29 | 7.86 | 5.513
x1 = 0.3995 | 1582.25 | 1568.62 | 8.171 | 5.801
x1 = 0.5006 | 1792.24 | 1776.88 | 8.531 | 6.128
x1 = 0.5987 | 2003.6 | 1986.59 | 8.915 | 6.484
x1 = 0.6993 | 2229.07 | 2210.42 | 9.351 | 6.886
x1 = 0.799 | 2461.79 | 2441.56 | 9.836 | 7.336
x1 = 0.8992 | 2706 | 2684.21 | 10.38 | 7.862
x1 = 1 | 2963.2 | 2939.86 | 10.94 | 8.413

CCCCCCO [hexan-1-ol] + BrC(Br)C(Br)Br
[3], x2 = 0
Details | mass density [kg/m3] | viscosity [mPa·s]
293.15 K | 818.92 | 5.37
303.15 K | 811.73 | 3.744

CCCCCCCO [heptan-1-ol] + BrC(Br)C(Br)Br
[3], x2 = 0
Details | mass density [kg/m3] | viscosity [mPa·s]
293.15 K | 822.39 | 7.058
303.15 K | 815.41 | 4.821

CCCCCCCCCCO [decan-1-ol]
Details | refractive index
[1] | 1.43706

[2]
Details | mass density [kg/m3] | viscosity [mPa·s]
293.15 K | 829.7 | 14.54
303.15 K | 822.85 | 9.676

CCCCCCCCCCO [decan-1-ol] + BrC(Br)C(Br)Br
[3], x2 = 0
Details | mass density [kg/m3] | viscosity [mPa·s]
293.15 K | 829.7 | 14.54
303.15 K | 822.85 | 9.676

BrC(Br)C(Br)Br [1,1,2,2-tetrabromoethane]
Details | refractive index
[1] | 1.63535

[2]
Details | mass density [kg/m3] | viscosity [mPa·s]
293.15 K | 2963.2 | 10.94
303.15 K | 2939.86 | 8.413

BrC(Br)C(Br)Br [1,1,2,2-tetrabromoethane] + CCCCCO
[3]
Details | mass density, 293.15 K [kg/m3] | mass density, 303.15 K [kg/m3] | viscosity, 293.15 K [mPa·s] | viscosity, 303.15 K [mPa·s]
x1 = 0.1009 | 1048.36 | 1038.85 | 4.543 | 3.24
x1 = 0.2014 | 1276.63 | 1265.1 | 5.078 | 3.639
x1 = 0.3004 | 1497.47 | 1484.08 | 5.653 | 4.078
x1 = 0.4003 | 1716.5 | 1701.36 | 6.278 | 4.563
x1 = 0.5014 | 1934.64 | 1917.88 | 6.942 | 5.089
x1 = 0.6001 | 2144.16 | 2125.93 | 7.621 | 5.631
x1 = 0.7001 | 2353.22 | 2333.58 | 8.346 | 6.217
x1 = 0.7998 | 2558.61 | 2537.64 | 9.119 | 6.846
x1 = 0.8997 | 2761.73 | 2739.49 | 9.968 | 7.555
x1 = 1 | 2963.2 | 2939.86 | 10.94 | 8.413

BrC(Br)C(Br)Br [1,1,2,2-tetrabromoethane] + CCCCCCCCO
[3]
Details | mass density, 293.15 K [kg/m3] | mass density, 303.15 K [kg/m3] | viscosity, 293.15 K [mPa·s] | viscosity, 303.15 K [mPa·s]
x1 = 0.099 | – | 980.93 | – | 6.446
x1 = 0.101 | 989.26 | – | 9.28 | –
x1 = 0.1999 | – | 1151.32 | – | 6.535
x1 = 0.2013 | 1161.15 | – | 9.347 | –
x1 = 0.2997 | 1338.99 | – | 9.426 | –
x1 = 0.3001 | – | 1327.63 | – | 6.646
x1 = 0.3994 | 1529.17 | – | 9.527 | –
x1 = 0.3995 | – | 1516.19 | – | 6.774
x1 = 0.5002 | 1732.98 | – | 9.661 | –
x1 = 0.5006 | – | 1718.29 | – | 6.947
x1 = 0.5987 | – | 1931.52 | – | 7.155
x1 = 0.6003 | 1947.95 | – | 9.831 | –
x1 = 0.6993 | – | 2157.22 | – | 7.398
x1 = 0.6998 | 2175.4 | – | 10.04 | –
x1 = 0.799 | – | 2399.36 | – | 7.708
x1 = 0.7998 | 2419.28 | – | 10.32 | –
x1 = 0.8992 | – | 2662.77 | – | 8.065
x1 = 0.9011 | 2684.42 | – | 10.63 | –
x1 = 1 | 2963.2 | 2939.86 | 10.94 | 8.413
